{"source": "patent US12522576B2", "about": "“Polymorphs of D9-THC naphthoylester” (priority 2019, dated 2026)", "key": {"[1]": {"test": "Competitive ripening (relative thermodynamic stability of non-solvated forms)", "conditions": "for Nature (thermodynamic stability of crystal form): Table 6 summary"}, "[2]": {"test": "D9 solubility in the liquors at isolation temperature", "assay_type": "physicochemical", "conditions": "organic solvent or mixture, thermodynamic from solid", "protocol": "At the end of each experiment, suspensions were equilibrated at the isolation temperature (25 or 5° C.) for at least 18 hours and the solids and liquors separated by centrifugation at the isolation temperature. The Exo/D9/D8 ratio (Exo-D9-THC-naphthoylester impurity/D9-THC-naphthoylester/D8-THC-naphthoylester) was determined in both the isolated solids and the liquors, from which the % Exo-depletion in the isolated solids was calculated. Several solids were also isolated at elevated temperatures to assess the impact of the isolation temperature on Exo-impurity depletion.\nIn addition, the solubility of D9 in the liquors was determined in most of the explored solvents and used to estimate the yield."}, "[3]": {"conditions": "Experiment No. 10, n-BuOH, 25 °C"}, "[4]": {"conditions": "Experiment No. 14, Toluene/EtOH (1:9), 5 °C"}, "[5]": {"conditions": "Experiment No. 16, n-BuOH, 5 °C"}}}
{"smiles": "CCCCCc1cc(OC(=O)c2ccc3ccccc3c2)c2c(c1)OC(C)(C)[C@@H]1CCC(C)=C[C@@H]21", "note": "[A, B, C, E, G]", "values": [{"measurement": "Form Isolated 1-3 d", "setting": "[1]; Experiment No. 7, Acetone/MeOH (1:3), 25 °C", "result": "E/G"}, {"measurement": "Form Isolated 1-3 d", "setting": "[1]; Experiment No. 8, Toluene/EtOH (1:9), 25 °C", "result": "G/E"}, {"measurement": "Form Isolated 1-3 d", "setting": "[1]; [3]", "result": "B/G"}, {"measurement": "Form Isolated 4-9 d", "setting": "[1]; [3]", "result": "B/G"}, {"measurement": "Form Isolated 4-9 d", "setting": "[1]; [4]", "result": "B/G"}, {"measurement": "Form Isolated 26-29 d", "setting": "[1]; [4]", "result": "G/B(tr)"}, {"measurement": "Form Isolated 4-9 d", "setting": "[1]; [5]", "result": "B/G"}, {"measurement": "Form Isolated 26-29 d", "setting": "[1]; [5]", "result": "B/G"}]}
{"smiles": "CCCCCc1cc(OC(=O)c2ccc3ccccc3c2)c2c(c1)OC(C)(C)[C@@H]1CCC(C)=C[C@@H]21", "note": "[B, G, H]", "values": [{"measurement": "Form Isolated 12 d", "setting": "[1]; Experiment No. 17, Toluene/EtOH (1:9), 5 °C", "result": "G/H"}, {"measurement": "Form Isolated 12 d", "setting": "[1]; Experiment No. 18, Heptane, 5 °C", "result": "H/B(tr)"}, {"measurement": "Form Isolated 12 d", "setting": "[1]; Experiment No. 19, n-BuOH, 5 °C", "result": "B/H"}]}
{"smiles": "CCCCCc1cc(OC(=O)c2ccc3ccccc3c2)c2c(c1)OC(C)(C)[C@@H]1CCC(C)=C[C@@H]21", "note": "[E, G]", "values": [{"measurement": "Form Isolated 4-9 d", "setting": "[1]; Experiment No. 15, Heptane, 5 °C", "result": "G/B"}]}
{"smiles": "CCCCCc1cc(OC(=O)c2ccc3ccccc3c2)c2c(c1)OC(C)(C)[C@@H]1CCC(C)=C[C@@H]21", "note": "[Form A, (6aR,10aR)-6a,7,8,10a-tetrahydro-6,6,9-trimethyl-3-pentyl-6H-dibenzo[b,d]pyran-1-yl ester]", "values": [{"measurement": "Nature (thermodynamic stability of crystal form)", "setting": "[1]", "result": "Metastable"}]}
{"smiles": "CCCCCc1cc(OC(=O)c2ccc3ccccc3c2)c2c(c1)OC(C)(C)[C@@H]1CCC(C)=C[C@@H]21", "note": "[Form C, (6aR,10aR)-6a,7,8,10a-tetrahydro-6,6,9-trimethyl-3-pentyl-6H-dibenzo[b,d]pyran-1-yl ester]", "values": [{"measurement": "solubility", "setting": "[2]; crystallisation liquors over suspended solid, 5 °C, batch 5, MeCN/MIBK (8:2), seed D, heat T 50, isolation T 5, SP 6, 20.0 mL/g", "result": 21600, "unit": "µg/mL"}, {"measurement": "solubility", "setting": "[2]; crystallisation liquors over suspended solid, 5 °C, batch 5, MeCN/MeOH (9:1), seed D/G, heat T 50, isolation T 5, SP 6, 30.0 mL/g", "result": 8400, "unit": "µg/mL"}, {"measurement": "solubility", "setting": "[2]; crystallisation liquors over suspended solid, 25 °C, batch 5, MeCN, seed D, heat T 50, isolation T 25, SP 5, 30.0 mL/g", "result": 8600, "unit": "µg/mL"}, {"measurement": "solubility", "setting": "[2]; crystallisation liquors over suspended solid, 25 °C, batch 5, MeCN/MIBK (8:2), seed D, heat T 50, isolation T 25, SP 2, 3.2 mL/g", "result": 25500, "unit": "µg/mL"}, {"measurement": "solubility", "setting": "[2]; crystallisation liquors over suspended solid, 25 °C, batch 5, MeCN/MIBK (8:2), seed D, heat T 50, isolation T 25, SP 5, 20.0 mL/g", "result": 22300, "unit": "µg/mL"}, {"measurement": "solubility", "setting": "[2]; crystallisation liquors over suspended solid, 25 °C, batch 5, MeCN/MeOH (9:1), seed D/G, heat T 50, isolation T 25, SP 5, 30.0 mL/g", "result": 8700, "unit": "µg/mL"}, {"measurement": "Nature (thermodynamic stability of crystal form)", "setting": "[1]", "result": "Metastable"}]}
{"smiles": "CCCCCc1cc(OC(=O)c2ccc3ccccc3c2)c2c(c1)OC(C)(C)[C@@H]1CCC(C)=C[C@@H]21", "note": "[Form E, (6aR,10aR)-6a,7,8,10a-tetrahydro-6,6,9-trimethyl-3-pentyl-6H-dibenzo[b,d]pyran-1-yl ester]", "values": [{"measurement": "solubility", "setting": "[2]; crystallisation liquors over suspended solid, 25 °C, batch 5, Nitromethane, seed G, heat T 40, isolation T 25, 32.6 mL/g, SP 3", "result": 7000, "unit": "µg/mL"}, {"measurement": "Nature (thermodynamic stability of crystal form)", "setting": "[1]", "result": "Metastable"}]}
{"smiles": "CCCCCc1cc(OC(=O)c2ccc3ccccc3c2)c2c(c1)OC(C)(C)[C@@H]1CCC(C)=C[C@@H]21", "note": "[Form G, (6aR,10aR)-6a,7,8,10a-tetrahydro-6,6,9-trimethyl-3-pentyl-6H-dibenzo[b,d]pyran-1-yl ester]", "values": [{"measurement": "solubility", "setting": "[2]; crystallisation liquors over suspended solid, 25 °C, batch 5, Anisole/MeOH (1:9), seed E/G, heat T 50, isolation T 25, 9.4 mL/g, SP 3", "result": 8100, "unit": "µg/mL"}, {"measurement": "solubility", "setting": "[2]; crystallisation liquors over suspended solid, 25 °C, batch 5, Cyclohexanone/MeOH (1:3), seed G, heat T 40, isolation T 25, 9.4 mL/g, SP 3", "result": 34400, "unit": "µg/mL"}, {"measurement": "solubility", "setting": "[2]; crystallisation liquors over suspended solid, 25 °C, batch 5, EtOAc/EtOH (1:9), seed G/H, heat T 55, isolation T 25, 5.0 mL/g, SP 15, Exp 53", "result": 17800, "unit": "µg/mL"}, {"measurement": "solubility", "setting": "[2]; crystallisation liquors over suspended solid, 25 °C, batch 5, EtOAc/MeOH (1:2), seed H, heat T 55, isolation T 25, 8.0 mL/g, SP 21, Exp 50", "result": 18500, "unit": "µg/mL"}, {"measurement": "solubility", "setting": "[2]; crystallisation liquors over suspended solid, 25 °C, batch 5, EtOAc/MeOH (1:3), seed G/H, heat T 55, isolation T 25, 10.0 mL/g, SP 15, Exp 55", "result": 9700, "unit": "µg/mL"}, {"measurement": "solubility", "setting": "[2]; crystallisation liquors over suspended solid, 25 °C, batch 5, MEK/MeOH (3:7), seed G/H, heat T 55, isolation T 25, 5.0 mL/g, SP 15, Exp 51", "result": 23200, "unit": "µg/mL"}, {"measurement": "solubility", "setting": "[2]; crystallisation liquors over suspended solid, 25 °C, batch 5, Toluene/MeOH (1:9), seed E/G, heat T 50, isolation T 25, 9.6 mL/g, SP 3", "result": 6500, "unit": "µg/mL"}, {"measurement": "solubility", "setting": "[2]; crystallisation liquors over suspended solid, 25 °C, batch 5, Toluene/MeOH (5:95), seed H, heat T 50, isolation T 25, 10.0 mL/g, SP 20, Exp 44", "result": 3400, "unit": "µg/mL"}, {"measurement": "solubility", "setting": "[2]; crystallisation liquors over suspended solid, 25 °C, batch 5, p-Xylene/MeOH (1:9), seed E/G, heat T 50, isolation T 25, 19.5 mL/g, SP 3", "result": 7500, "unit": "µg/mL"}, {"measurement": "solubility", "setting": "[2]; liquors of the equilibrated crystallisation suspension, 25 °C, batch 5, Cyclohexanone/MeOH (1:3), seed G, heat T 25, isolation T 25, 30.0 mL/g, SP 7", "result": 29300, "unit": "µg/mL"}, {"measurement": "Nature (thermodynamic stability of crystal form)", "setting": "[1]", "result": "Metastable"}]}
{"smiles": "CCCCCc1cc(OC(=O)c2ccc3ccccc3c2)c2c(c1)OC(C)(C)[C@@H]1CCC(C)=C[C@@H]21", "note": "[G, H]", "values": [{"measurement": "Form Isolated 1-3 d", "setting": "[1]; Experiment No. 5, Toluene/EtOH (1:9), 50 °C", "result": "H/G(tr)"}, {"measurement": "Form Isolated 1-3 d", "setting": "[1]; Experiment No. 6, n-BuOH, 50 °C", "result": "H/G(tr)"}, {"measurement": "Form Isolated 1-3 d", "setting": "[1]; Experiment No. 11, Toluene/EtOH (1:9), 25 °C", "result": "G/H"}, {"measurement": "Form Isolated 1-3 d", "setting": "[1]; Experiment No. 12, Heptane, 25 °C", "result": "H/G"}]}
